Assays:
Assay type in all cases: in vivo, C57BL/6 mice
[1] = test system: mice in which obesity is induced with a high-fat diet; experiment: Body weight and food intake of high-fat diet obese mice treated with panduratin derivatives; conditions: for food intake, test group versus other groups: high-fat diet obese C57BL/6 mice; for body weight increase after 8 weeks: high-fat diet control about 32%
From the text: (§1) Mice in which obesity is induced with a high-fat diet were selected as a model to investigate the obesity-relieving effect of panduratin A prepared in Example 2. 3-week-old C57BL/6 mice were accustomed for a week, and a high-fat diet (Product # D12492, Research Diet Inc., New Brunswick, N.J., USA) was provided for 6 weeks to induce obesity. Then, the mice were randomly divided into 3 groups, 12 per each group. For the test group, panduratin A suspended in 0.25% carboxymethyl cellulose was administered once a day at regular hours for 8 weeks, with an administration dose of 50 mg/kg body weight. For comparison, 0.25% carboxymethyl cellulose only (control) of the same amount as that for the test group or sibutramine suspended in 0.25% carboxymethyl cellulose (5 mg/kg body weight) was orally administered. Then, food intake and body weight of the mice were measured every week, for 8 weeks.
(§2) The effect of isopanduratin A prepared in Example 3 on body weight and body fat decrease was investigated in the same manner as in Examples 5 and 6. After administration for 8 weeks, there was no difference between the test group and other groups in food intake.
(§3) The effect of 4-hydroxypanduratin A prepared in Example 4 on body weight and body fat decrease was investigated in the same manner as in Examples 5 and 6. After administration for 8 weeks, there was no difference between the 4-hydroxypanduratin-administered test group and other groups in food intake.

[2] = test system: mice in which obesity is induced with a high-fat diet; experiment: Body fat (abdominal, perirenal, epididymal) in high-fat diet obese mice treated with panduratin derivatives; conditions: administration for 8 weeks, same manner as panduratin A (50 mg/kg)
Method: as §1, with “3-week-old” for “Mice in which obesity is induced with a high-fat diet were selected as a model to investigate the obesity-relieving effect of panduratin A prepared in Example 2. 3-week-old”, “After administration for 8 weeks,” for “Then, food intake and body weight of”, “fasted” for “measured every week,”, “at least 12 hours. After cutting open the abdomen, perirenal fat and epididymal fat were taken out, washed with physiological saline, dried, and then weighed.” for “8 weeks.”
as §2, §3

[3] = test system: mice in which obesity is induced with a high-fat diet; experiment: Serum total cholesterol, triglyceride, total lipid and leptin in high-fat diet obese mice; conditions: sibutramine 5 mg/kg orally for 8 weeks
Method: 3-week-old C57BL/6 mice were accustomed for a week, and a high-fat diet (Product # D12492, Research Diet Inc., New Brunswick, N.J., USA) was provided for 6 weeks to induce obesity. Then, the mice were randomly divided into 3 groups, 12 per each group. For the test group, panduratin A suspended in 0.25% carboxymethyl cellulose was administered once a day at regular hours for 8 weeks, with an administration dose of 50 mg/kg body weight. For comparison, 0.25% carboxymethyl cellulose only (control) of the same amount as that for the test group or sibutramine suspended in 0.25% carboxymethyl cellulose (5 mg/kg body weight) was orally administered. After administration for 8 weeks, the mice were fasted for at least 12 hours. After cutting open the abdomen, blood was taken from the heart. The blood was centrifuged at 2,800 rpm at 4° C. for 30 minutes to separate the serum. The separated serum was stored at −70° C.
Total cholesterol level in the serum was determined by measuring absorbance at 500 nm using a standard enzyme assay kit. Serum triglyceride level was determined by measuring absorbance at 546 nm using a glycerol phosphate oxidase assay kit. Serum total lipid level was determined by measuring absorbance at 540 nm by the Frings method. Serum leptin level was determined by radioimmunoassay (RIA) using a mouse leptin RIA kit (Linco Research, Inc. USA).

[4] = test system: mice in which obesity is induced with a high-fat diet; experiment: Body weight and food intake of high-fat diet obese mice treated with Boesenbergia pandurata extract; conditions: sibutramine 5 mg/kg orally for 8 weeks; high-fat diet control about 33%
From the text: as §1, with “of the Boesenbergia pandurata extract” for “of panduratin A”, “Example 1. 4-week-old” for “Example 2. 3-week-old”, “groups, 8” for “groups, 12”, “group, Boesenbergia pandurata extract” for “group, panduratin A”, “of 200” for “of 50”

[5] = 50 mg/kg body weight once a day for 8 weeks

Compound: CC(C)=CC[C@@H]1C(C)=CC[C@@H](c2ccccc2)[C@@H]1C(=O)c1c(O)cc(O)cc1O [4-hydroxypanduratin A]
- food intake, test group versus other groups [1, 5]: no difference
- body weight increase after 8 weeks [1, 5]: ~13%
- decrease of epididymal fat weight as compared to the high-fat diet control group [2]: 46%
- decrease of perirenal fat weight as compared to the high-fat diet control group [2]: 33%

Compound: COc1cc(O)cc(O)c1C(=O)[C@@H]1[C@H](CC=C(C)C)C(C)=CC[C@H]1c1ccccc1 [isopanduratin A, (4,6-dihydroxy-2-methoxyphenyl)[3-methyl-2-(3-methylbut-2-enyl)-6-phenylcyclohex-3-enyl]methanone]
- food intake, test group versus other groups [1, 5]: no difference
- body weight increase after 8 weeks [1, 5]: ~17%
- decrease of epididymal fat weight as compared to the high-fat diet control group [2]: 32%
- decrease of perirenal fat weight as compared to the high-fat diet control group [2]: 25%

Compound: CC(C)CC(N(C)C)C1(c2ccc(Cl)cc2)CCC1 (stereo not shown) [sibutramine]
- total cholesterol level in the serum ([3]; control 140.73±16.47): 122.4 ± 22.6 mg/dL
- serum triglyceride level ([3]; control 154.36±27.02): 150.2 ± 20.19 mg/dL
- total lipid level in the serum ([3]; control 555.18±80.86): 493.2 ± 111.9 mg/dL
- body weight increase after 8 weeks ([1]; sibutramine 5 mg/kg body weight orally for 8 weeks): about 20%
- body weight increase after 8 weeks [4]: about 27%

From US8653143B2, “Use of panduratin derivative or Boesenbergia pandurata extract” (Newtree Co., Ltd., priority 2008, dated 2014)
